Experiment [1] relates to BL41 Burkitt's lymphoma cells (CD40+). Nature of the experiment: Apoptosis of BL41 Burkitt's lymphoma cells, flow cytometry after DiOC6 labelling. In kind it is cell-based. The note with it: 16 hours. The method, then: (§1) The agonist effect of the ligands was tested by means of a simple biological test which is based on the property of certain B lymphomas of entering into apoptosis during the bridging of their membranous CD40 molecule (Tong et al., 1999). In fact, these B lymphomas enter into apoptosis during the bridging of their CD40 molecule by an anti-CD40 antibody or by soluble CD40L. The agonist ligands of CD40 will similarly induce an increase in the apoptosis of Burkitt's lymphoma cells which is measured by a precise analysis with flow cytometry.
(§2) BL41 Burkitt's or Raji (ATCC CCL-86) lymphoma cells (5.10^5/mL) two similar cell lines, are cultured in the presence of the different ligands at the desired concentrations. After 16 hours, the cells are labelled with 3,3′-dihexyloxacarbocyanine iodide (DiOC6) at 40 nM (Petit et al., 1995) in order to evaluate the percentage of apoptotic cells using flow cytometry.

Experiment [2] concerns the target T1, CD40-CD40L interaction (human CD40 muIg fusion protein, human CD154 muCD8 fusion protein) (Homo sapiens, UniProt P25942).
T1 construct: purchased ANCELL Corporation
Nature of the experiment: BIAcore inhibition of the CD40-CD40L interaction. In kind it is binding. The note with it: ligand at 1 μM, CD40L at 35 nM. The source says:
(§3) The BIAcore 3000 is a device which allows the study of the interactions between two molecules. Based on surface plasmon resonance, it makes it possible to carry out measurements in real time and thus to follow the interaction kinetics (association and dissociation) of an “analyte” (which is found in an injected solution) with a “ligand” (immobilized on a microchip supporting the measurement). Kinetic measurements at different concentrations of analyte make it possible to calculate the affinity constants of the interaction between the ligand and the analyte. The microchip contains four cells with different measurements, which makes it possible to directly compare a reference cell on which a non-pertinent protein (a protein which has no affinity for the analyte studied but close to the ligand) is immobilized, with the cell on which the ligand is immobilized.
(§4) The test is carried out in two stages: measurement of the direct interaction of the ligands with the CD40 immobilized on the microchip and measurement of the inhibition of the CD40-CD40L interaction by the ligands.
(§5) Rabbit antibodies directed against the constant part of mouse immunoglobulins were immobilized on a microchip. […]
In order to regenerate the cells (i.e. to remove all the proteins adsorbed in non-covalent manner), a 10 mM HCl solution is injected at 5 μL/min over 1 minute. The cells are then ready for a new analysis.
A general note: Surface plasmon resonance follows binding to a sensor surface in real time, without labels.

In experiment [3] the target is T2, recombinant CD40 (human CD40 muIg fusion protein) (Homo sapiens, UniProt P25942).
T2 construct: purchased ANCELL Corporation, Bayport, Minn
Nature of the experiment: BIAcore direct interaction of the ligands with immobilized CD40. In kind it is binding. The note with it: BIAcore 3000, kinetics of direct association to immobilized CD40, 30 μL/min over 4 minutes; read-out: dissociation constant.
Description: as §3, §4, §5
In order to regenerate the cells (i.e. to remove all the proteins adsorbed in a non-covalent manner), a 50 mM HCl solution is injected at 5 μL/min over 1 minute. The cells are then ready for a new analysis.

In experiment [4] the test system is Raji (ATCC CCL-86) lymphoma cells (CD40+). Nature of the experiment: Apoptosis of Raji lymphoma cells, flow cytometry after DiOC6 labelling. The class given is cell-based. The method, then:
as §1, §2
On the technique in general: In flow cytometry, cells or beads pass a laser one at a time.

Non-standard residues stand in square brackets, D forms with d. Residues, ends and D or L forms follow the SMILES beside them. Groups on a side chain read outwards from the residue. No end group written: not given here. *: point of attachment. Biotin = O=C1N[C@H]2[C@H](CS[C@H]2CCCCC(=O)*)N1; Ahx = NCCCCCC(=O)O

T1 sequence (P25942 21-193 limits assumed): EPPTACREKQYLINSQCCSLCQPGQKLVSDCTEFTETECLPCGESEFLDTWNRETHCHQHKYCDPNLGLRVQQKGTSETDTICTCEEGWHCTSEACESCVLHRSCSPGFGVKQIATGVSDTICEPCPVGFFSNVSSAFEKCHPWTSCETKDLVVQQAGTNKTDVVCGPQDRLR
T2 sequence (P25942 21-193 limits assumed): as above

The compound `C[C@H]1NC(=O)[C@H](CCCCNC(=O)CCCCCNC(=O)[C@H](Cc2ccc(O)cc2)NC(=O)[C@H](Cc2ccc(O)cc2)NC(=O)CNC(=O)[C@@H](N)CCCCN)NC(=O)[C@@H](C)NC(=O)[C@H](CCCCNC(=O)CCCCCNC(=O)[C@H](Cc2ccc(O)cc2)NC(=O)[C@H](Cc2ccc(O)cc2)NC(=O)CNC(=O)[C@@H](N)CCCCN)NC(=O)[C@@H](C)NC(=O)[C@H](CCCCNC(=O)CCCCCNC(=O)[C@H](Cc2ccc(O)cc2)NC(=O)[C@H](Cc2ccc(O)cc2)NC(=O)CNC(=O)[C@@H](N)CCCCN)NC1=O` [L4] (cyclo(K([Ahx-Tyr-Tyr-Gly-Lys])[dA]K([Ahx-Tyr-Tyr-Gly-Lys])[dA]K([Ahx-Tyr-Tyr-Gly-Lys])[dA])) gave a specific apoptosis in experiment [1] (ligand at 12.5 μM, DiOC6 flow cytometry (FIG. 5C)) of 24%.
For `C[C@H]1NC(=O)[C@H](CCCCNC(=O)CCCCCNC(=O)[C@H](Cc2ccc(O)cc2)NC(=O)[C@H](Cc2ccc(O)cc2)NC(=O)[C@H]2CCCN2C(=O)[C@@H](N)CCCCN)NC(=O)[C@@H](C)NC(=O)[C@H](CCCCNC(=O)CCCCCNC(=O)[C@H](Cc2ccc(O)cc2)NC(=O)[C@H](Cc2ccc(O)cc2)NC(=O)[C@H]2CCCN2C(=O)[C@@H](N)CCCCN)NC(=O)[C@@H](C)NC(=O)[C@H](CCCCNC(=O)CCCCCNC(=O)[C@H](Cc2ccc(O)cc2)NC(=O)[C@H](Cc2ccc(O)cc2)NC(=O)[C@H]2CCCN2C(=O)[C@@H](N)CCCCN)NC1=O` [L40] (cyclo(K([Ahx-Tyr-Tyr-dP-Lys])[dA]K([Ahx-Tyr-Tyr-dP-Lys])[dA]K([Ahx-Tyr-Tyr-dP-Lys])[dA])), the “inhibition of the binding of CD40L to CD40” value in experiment [2] is recorded as 100%.
As to `C[C@H]1NC(=O)[C@H](CCCCNC(=O)CCCCCNC(=O)[C@H](Cc2ccc(O)cc2)NC(=O)[C@H](Cc2ccc(O)cc2)NC(=O)CNC(=O)[C@@H](N)CCCCN)NC(=O)[C@@H](CCCCNC(=O)CCCC[C@@H]2SC[C@@H]3NC(=O)N[C@@H]32)NC(=O)[C@H](CCCCNC(=O)CCCCCNC(=O)[C@H](Cc2ccc(O)cc2)NC(=O)[C@H](Cc2ccc(O)cc2)NC(=O)CNC(=O)[C@@H](N)CCCCN)NC(=O)[C@@H](C)NC(=O)[C@H](CCCCNC(=O)CCCCCNC(=O)[C@H](Cc2ccc(O)cc2)NC(=O)[C@H](Cc2ccc(O)cc2)NC(=O)CNC(=O)[C@@H](N)CCCCN)NC1=O` [L41] (cyclo(K([Ahx-Tyr-Tyr-Gly-Lys])[dA]K([Ahx-Tyr-Tyr-Gly-Lys])[dA]K([Ahx-Tyr-Tyr-Gly-Lys])[dK](Biotin))), in experiment [3], the Kd was 28 nM.
For “H-Lys-Pro-Tyr-Tyr-Ahx-OH (H-KPYY[Ahx]-OH; SMILES NCCCC[C@H](N)C(=O)N1CCC[C@H]1C(=O)N[C@@H](Cc1ccc(O)cc1)C(=O)N[C@@H](Cc1ccc(O)cc1)C(=O)NCCCCCC(=O)O) [L45, control peptide in which D-Proline is replaced by L-Proline]”, the “biological activity (induction of apoptosis), in words” value in experiment [1] (dose-response (FIG. 5B, 5C)) is given as “no activity”.
Turning to “L43: compound of formula (III-a) in which Rc is Ahx-(D)Pro-Tyr-Tyr-NH—(CH2)5—CO— (peptide [Ahx][dP]YY[Ahx]; chain K[dA]K[dA]K[dA]; also: three copies of chain 1 amide-linked via C-terminal Ahx to the three Lys side-chain amines of the ring (chain 2), head-to-tail to a chain's N/C-terminus)”, in experiment [4] (Raji cells, 16 hours, dose-response (FIG. 5D)), the “effectiveness in inducing apoptosis, in words” value is recorded as “less effective than its homologue L4”. The “inhibition of the binding of CD40L to CD40” value in experiment [2] is reported as 30%.
On to “L62: compound of formula (III-a) in which Rc is H-Lys-ψ(CH2N)-(D)Pro-Tyr-Tyr-NH—(CH2)5—CO— (peptide H-K[dP]YY[Ahx]; chain K[dA]K[dA]K[dA]; also: reduced bond psi(CH2N) between Lys1 and D-Pro2 of chain 1, three copies of chain 1 amide-linked via C-terminal Ahx to the three Lys side-chain amines of the ring (chain 2), head-to-tail to a chain's N/C-terminus)”, for which the “effectiveness and selectivity of apoptosis induction, in words” value in experiment [4] (Raji and BL41 (CD40+) versus Jurkat (CD40−) cells, 16 hours (FIGS. 8A, 8B)) is “effective and selective ligand”.
